“And” between values parts separate entries of the source, which are not always exact repeats. Identical values can stand only once. Inconclusive results and toxic doses are left out. How the source made its calls: active means survival T/C of 150% or more; inactive means T/C below 125% in these data.
Test system: P388 leukemia ip, CD2F1 mice, survival T/C
Assay: NCI In Vivo Anticancer Drug Screen. Data for tumor model P388 Leukemia (intraperitoneal) in CD2F1 (CDF1) mice
Conditions: endpoint: median survival time, higher = longer survival
How it was run: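 Mice carrying the transplanted tumor received test compound or vehicle. Survival was recorded in each group, and the value is the treated-group measurement divided by that of the vehicle-treated control group.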

[1] = dose: 50.0 mg/kg/injection, schedule: Q01DX009 (ip), vehicle: saline with Tween-80
[2] = dose: 100.0 mg/kg/injection, schedule: Q01DX009 (ip), vehicle: saline with Tween-80
[3] = dose: 200.0 mg/kg/injection, schedule: Q01DX009 (ip), vehicle: saline with Tween-80
[4] = dose: 50.0 mg/kg/injection, schedule: Q01DX005 (ip), vehicle: Klucel (hydroxypropylcellulose) (HPC)
[5] = dose: 100.0 mg/kg/injection, schedule: Q01DX005 (ip), vehicle: Klucel (hydroxypropylcellulose) (HPC)
[6] = dose: 60.0 mg/kg/injection, schedule: Q01DX005 (ip), vehicle: Klucel (hydroxypropylcellulose) (HPC)
[7] = dose: 120.0 mg/kg/injection, schedule: Q01DX005 (ip), vehicle: Klucel (hydroxypropylcellulose) (HPC)
[8] = dose: 240.0 mg/kg/injection, schedule: Q01DX005 (ip), vehicle: Klucel (hydroxypropylcellulose) (HPC)

Measured: T/C

CCOc1ccc(N2CC(=O)N3CCCN3C(=O)C2)cc1
inactive: dose: 6.25 mg/kg/injection, schedule: Q01DX005 (ip), vehicle: saline with Tween-80 96 % of control | dose: 12.5 mg/kg/injection, schedule: Q01DX005 (ip), vehicle: saline with Tween-80 102 % of control | dose: 25.0 mg/kg/injection, schedule: Q01DX005 (ip), vehicle: saline with Tween-80 100 % of control

O=C(c1ccccc1)N1OC2C=CC1CC2 (centres undefined)
inactive: [1] 104 % of control | [2] 98 % of control | [3] 109 % of control

NC(=S)Nc1cccc2ccccc12
inactive: dose: 6.25 mg/kg/injection, schedule: Q01DX009 (ip), vehicle: saline with Tween-80 100 % of control and 112 % of control | dose: 12.5 mg/kg/injection, schedule: Q01DX009 (ip), vehicle: saline with Tween-80 113 % of control and 94 % of control | dose: 25.0 mg/kg/injection, schedule: Q01DX009 (ip), vehicle: saline with Tween-80 104 % of control and 91 % of control | [1] 94 % of control

N#Cc1ccccc1NCc1ccccc1
inactive: dose: 12.5 mg/kg/injection, schedule: Q01DX009 (ip), vehicle: distilled water + Tween-80 103 % of control | dose: 25.0 mg/kg/injection, schedule: Q01DX009 (ip), vehicle: distilled water + Tween-80 102 % of control | dose: 50.0 mg/kg/injection, schedule: Q01DX009 (ip), vehicle: distilled water + Tween-80 100 % of control and 97 % of control | dose: 100.0 mg/kg/injection, schedule: Q01DX009 (ip), vehicle: distilled water + Tween-80 100 % of control and 103 % of control and 92 % of control | dose: 200.0 mg/kg/injection, schedule: Q01DX009 (ip), vehicle: distilled water + Tween-80 94 % of control and 95 % of control (2×) | dose: 400.0 mg/kg/injection, schedule: Q01DX009 (ip), vehicle: distilled water + Tween-80 99 % of control and 93 % of control | dose: 600.0 mg/kg/injection, schedule: Q01DX009 (ip), vehicle: distilled water + Tween-80 99 % of control

C/C=C1/C[N+]2([O-])CC[C@@]34c5ccc(OC)cc5N(C)[C@H]3C2CC1C4C(=O)OC (some centres undefined)
inactive: dose: 2.5 mg/kg/injection, schedule: Q01DX005 (ip), vehicle: Klucel + Tween-80 96 % of control | dose: 5.0 mg/kg/injection, schedule: Q01DX005 (ip), vehicle: Klucel + Tween-80 97 % of control | dose: 10.0 mg/kg/injection, schedule: Q01DX005 (ip), vehicle: Klucel + Tween-80 98 % of control | dose: 20.0 mg/kg/injection, schedule: Q01DX005 (ip), vehicle: Klucel + Tween-80 98 % of control

COc1ccc(OC)c2c(Cl)cc(N)nc12
inactive: dose: 25.0 mg/kg/injection, schedule: Q01DX005 (ip), vehicle: Klucel (hydroxypropylcellulose) (HPC) 102 % of control | [4] 106 % of control | [5] 101 % of control | dose: 200.0 mg/kg/injection, schedule: Q01DX005 (ip), vehicle: Klucel (hydroxypropylcellulose) (HPC) 102 % of control

N=C(N)Sc1cc(O)c(O)c2ccccc12
inactive: dose: 6.25 mg/kg/injection, schedule: Q01DX005 (ip), vehicle: saline 104 % of control | dose: 12.5 mg/kg/injection, schedule: Q01DX005 (ip), vehicle: saline 109 % of control

Cc1ccc(S(=O)(=O)N(C)c2ccc(Cl)cc2C2=NCCc3ccccc32)cc1
inactive: dose: 50.0 mg/kg/injection, schedule: Q01DX009 (ip), vehicle: Klucel (hydroxypropylcellulose) (HPC) 100 % of control | dose: 100.0 mg/kg/injection, schedule: Q01DX009 (ip), vehicle: Klucel (hydroxypropylcellulose) (HPC) 101 % of control | dose: 200.0 mg/kg/injection, schedule: Q01DX009 (ip), vehicle: Klucel (hydroxypropylcellulose) (HPC) 101 % of control

CCc1nc(N)nc(N)c1-c1ccc2c(c1)nnn2CCc1ccccc1
inactive: [4] 99 % of control | [5] 96 % of control

O=C1C2=C(Nc3ccccc3N2)OC1c1ccccc1O (centres undefined)
inactive: [6] 98 % of control | [7] 91 % of control | [8] 91 % of control

CN1C(c2ccccc2)C2CCCC(C2O)C1c1ccccc1 (centres undefined)
inactive: dose: 100.0 mg/kg/injection, schedule: Q04DX003 (ip), vehicle: saline 97 % of control | dose: 200.0 mg/kg/injection, schedule: Q04DX003 (ip), vehicle: saline 100 % of control | dose: 400.0 mg/kg/injection, schedule: Q04DX003 (ip), vehicle: saline 98 % of control

N#CC(C#N)C(c1ccccc1)c1cccc2ccccc12 (centres undefined)
inactive: dose: 100.0 mg/kg/injection, schedule: Q01DX001 (ip), vehicle: Klucel (hydroxypropylcellulose) (HPC) 101 % of control | dose: 200.0 mg/kg/injection, schedule: Q01DX001 (ip), vehicle: Klucel (hydroxypropylcellulose) (HPC) 109 % of control | dose: 400.0 mg/kg/injection, schedule: Q01DX001 (ip), vehicle: Klucel (hydroxypropylcellulose) (HPC) 104 % of control

O=C(CCCCl)NN=C(c1ccccc1)c1ccccc1
inactive: dose: 42.0 mg/kg/injection, schedule: Q01DX009 (ip), vehicle: saline with Tween-80 100 % of control | dose: 84.0 mg/kg/injection, schedule: Q01DX009 (ip), vehicle: saline with Tween-80 97 % of control | dose: 168.0 mg/kg/injection, schedule: Q01DX009 (ip), vehicle: saline with Tween-80 95 % of control

COc1ccc(-c2c(C#N)cnc(C)c2C)c(OCc2ccccc2)c1OC
inactive: dose: 12.5 mg/kg/injection, schedule: Q01DX009 (ip), vehicle: other 106 % of control | dose: 25.0 mg/kg/injection, schedule: Q01DX009 (ip), vehicle: other 101 % of control | dose: 50.0 mg/kg/injection, schedule: Q01DX009 (ip), vehicle: other 105 % of control | dose: 100.0 mg/kg/injection, schedule: Q01DX009 (ip), vehicle: other 98 % of control | dose: 200.0 mg/kg/injection, schedule: Q01DX009 (ip), vehicle: other 92 % of control

OCC12CC=CCC1C1CC=CCC1O2 (centres undefined)
inactive: dose: 50.0 mg/kg/injection, schedule: Q01DX005 (ip), vehicle: saline 101 % of control | dose: 100.0 mg/kg/injection, schedule: Q01DX005 (ip), vehicle: saline 99 % of control | dose: 200.0 mg/kg/injection, schedule: Q01DX005 (ip), vehicle: saline 103 % of control

Cc1cc(Cl)ccc1NC(=O)N1CCCCC1
inactive: [6] 96 % of control | [7] 96 % of control | [8] 93 % of control

O/N=C(/Cc1nc2cc(Cl)c(Cl)cc2nc1C/C(=N/O)c1ccncc1)c1ccncc1
inactive: dose: 60.0 mg/kg/injection, schedule: Q01DX005 (ip), vehicle: saline with Tween-80 102 % of control | dose: 120.0 mg/kg/injection, schedule: Q01DX005 (ip), vehicle: saline with Tween-80 100 % of control | dose: 240.0 mg/kg/injection, schedule: Q01DX005 (ip), vehicle: saline with Tween-80 102 % of control

CN=C(c1ccc(NC(=O)c2ccc(C(=O)Nc3ccc(C(=NC)N(C)C)cc3)c(Cl)c2)cc1)N(C)C
inactive: dose: 0.75 mg/kg/injection, schedule: Q01DX005 (ip), vehicle: saline 95 % of control | dose: 1.5 mg/kg/injection, schedule: Q01DX005 (ip), vehicle: saline 96 % of control | dose: 3.0 mg/kg/injection, schedule: Q01DX005 (ip), vehicle: saline 92 % of control | dose: 3.12 mg/kg/injection, schedule: Q01DX005 (ip), vehicle: saline 100 % of control

CC1COC(O)(C2OCOC(C3CC(=O)NC(=O)C3)C2O)C1C (centres undefined)
inactive: dose: 0.01 mg/kg/injection, schedule: Q01DX009 (ip), vehicle: distilled water + alcohol 100 % of control | dose: 0.03 mg/kg/injection, schedule: Q01DX009 (ip), vehicle: distilled water + alcohol 102 % of control | dose: 0.06 mg/kg/injection, schedule: Q01DX009 (ip), vehicle: distilled water + alcohol 102 % of control | dose: 0.12 mg/kg/injection, schedule: Q01DX009 (ip), vehicle: distilled water + alcohol 102 % of control

S=c1sc2ccccc2n1CCNc1ccccc1
inactive: [2] 90 % of control | dose: 100.0 mg/kg/injection, schedule: Q04DX003 (ip), vehicle: saline with Tween-80 90 % of control | [3] 90 % of control | dose: 200.0 mg/kg/injection, schedule: Q04DX003 (ip), vehicle: saline with Tween-80 95 % of control | dose: 400.0 mg/kg/injection, schedule: Q01DX009 (ip), vehicle: saline with Tween-80 86 % of control | dose: 400.0 mg/kg/injection, schedule: Q04DX003 (ip), vehicle: saline with Tween-80 104 % of control

Cc1onc(-c2c(Cl)cccc2Cl)c1C(=O)SC1=NC(C)N2C(SC(=O)c3c(-c4c(Cl)cccc4Cl)noc3C)=NC(C)N12 (centres undefined)
inactive: dose: 50.0 mg/kg/injection, schedule: Q01DX005 (ip), vehicle: saline with Tween-80 90 % of control | dose: 100.0 mg/kg/injection, schedule: Q01DX005 (ip), vehicle: saline with Tween-80 87 % of control

Source: PubChem BioAssay AID330 (DTP/NCI, 2004)
